According to patent US20120157453A1, “RAF INHIBITOR COMPOUNDS AND METHODS OF USE THEREOF” (GENENTECH, INC., priority 2009, published 2012):
Like-named read-outs stand apart in the source and are kept apart here.

Experiments:
V600E full-length B-Raf = molecular target: T1, V600E full-length B-Raf (Homo sapiens, UniProt P15056, V600E); test: B-Raf IC50 assay (incorporation of 33P phosphate into FSBA-modified MEK); assay type: biochemical
T1 construct: 1 μM FSBA-MEK and 20 nM V600E full-length B-Raf; made in house; host or cells: Sf9 insect cells (baculovirus)
T1 sequence (P15056 whole entry V600E): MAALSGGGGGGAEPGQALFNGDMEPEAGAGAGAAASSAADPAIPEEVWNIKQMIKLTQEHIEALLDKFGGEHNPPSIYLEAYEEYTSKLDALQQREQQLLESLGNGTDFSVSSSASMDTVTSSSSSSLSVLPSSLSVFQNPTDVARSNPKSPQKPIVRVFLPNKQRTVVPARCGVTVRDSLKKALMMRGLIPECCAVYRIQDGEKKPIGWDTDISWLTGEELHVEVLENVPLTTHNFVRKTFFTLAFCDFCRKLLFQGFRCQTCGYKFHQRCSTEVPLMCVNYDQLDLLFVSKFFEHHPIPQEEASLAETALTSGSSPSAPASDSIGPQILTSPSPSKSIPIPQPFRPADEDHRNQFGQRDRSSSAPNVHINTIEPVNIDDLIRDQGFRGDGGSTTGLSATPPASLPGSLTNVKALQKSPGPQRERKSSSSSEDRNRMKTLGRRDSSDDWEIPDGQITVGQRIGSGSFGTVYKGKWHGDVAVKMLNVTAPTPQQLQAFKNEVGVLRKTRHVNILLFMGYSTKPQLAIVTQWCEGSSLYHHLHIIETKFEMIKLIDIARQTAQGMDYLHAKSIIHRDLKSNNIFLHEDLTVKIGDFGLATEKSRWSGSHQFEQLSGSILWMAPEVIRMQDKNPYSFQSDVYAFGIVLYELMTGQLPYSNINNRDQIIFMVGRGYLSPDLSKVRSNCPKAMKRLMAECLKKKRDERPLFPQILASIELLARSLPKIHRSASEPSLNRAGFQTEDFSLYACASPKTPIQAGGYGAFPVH
Description: Determining the activity of Raf in the sample is possible by a number of direct and indirect detection methods (US 2004/0082014). Activity of human recombinant B-Raf protein may be assessed in vitro by assay of the incorporation of radio labeled phosphate to recombinant MAP kinase (MEK), a known physiologic substrate of B-Raf, according to US 2004/0127496 and WO 03/022840. The activity/inhibition of V600E full-length B-Raf was estimated by measuring the incorporation of radio labeled phosphate from [γ-^33P]ATP into FSBA-modified wild-type MEK (see Example A).
Activity of human recombinant B-Raf protein may be assessed in vitro by assay of the incorporation of radio labeled phosphate to recombinant MAP kinase (MEK), a known physiologic substrate of B-Raf, according to US 2004/0127496 and WO 03/022840. Catalytically active human recombinant B-Raf protein is obtained by purification from sf9 insect cells infected with a human B-Raf recombinant baculovirus expression vector.
The activity/inhibition of V600E full-length B-Raf was estimated by measuring the incorporation of radio labeled phosphate from [γ-^33P]ATP into FSBA-modified wild-type MEK. The 30-μL assay mixtures contained 25 mM Na Pipes, pH 7.2, 100 mM KCl, 10 mM MgCl2, 5 mM β-glycerophosphate, 100 μM Na Vanadate, 4 μM ATP, 500 nCi [γ-^33P]ATP, 1 μM FSBA-MEK and 20 nM V600E full-length B-Raf. Incubations were carried out at 22° C. in a Costar 3365 plate (Corning). Prior to the assay, the B-Raf and FSBA-MEK were preincubated together in assay buffer at 1.5× (20 μL of 30 nM and 1.5 μM, respectively) for 15 minutes, and the assay was initiated by the addition of 10 μL of 10 μM ATP. Following the 60-minute incubation, the assay mixtures were quenched by the addition of 100 μL of 25% TCA, the plate was mixed on a rotary shaker for 1 minute, and the product was captured on a Perkin-Elmer GF/B filter plate using a Tomtec Mach III Harvester. After sealing the bottom of the plate, 35 μL of Bio-Safe II (Research Products International) scintillation cocktail were added to each well and the plate was top-sealed and counted in a Topcount NXT (Packard).

[1] = test system: basal ERK1/2 phosphorylation in Malme-3M cells; test: Cellular ERK 1/2 phosphorylation assay; assay type: cell-based; settings: Homo sapiens, 1 h, pERK normalized to total ERK
Experimental: Inhibition of basal ERK1/2 phosphorylation was determined by the following in vitro […], which comprises incubating cells with a compound of Formula II for 1 hour and quantifying the fluorescent pERK signal on fixed cells and normalizing to total ERK signal.
Materials and Methods: Malme-3M cells were obtained from ATCC and grown in RPMI-1640 supplemented with 10% fetal bovine serum. Cells were plated in 96-well plates at 24,000 cells/well and allowed to attach for 16-20 hours at 37° C., 5% CO2. The media was removed, and DMSO-diluted compounds were added in RPMI-1640 at a final concentration of 1% DMSO. The cells were incubated with the compounds for 1 hour at 37° C., 5% CO2. The cells were washed with PBS and fixed in 3.7% formaldehyde in PBS for 15 minutes. This was followed by washing in PBS/0.05% Tween20 and permeabilizing in −20° C. 100% MeOH for 15 minutes. Cells were washed in PBS/0.05% Tween20 then blocked in Odyssey blocking buffer (LI-COR Biosciences) for 1 hour. Antibodies to phosphorylated ERK (1:400, Cell Signaling #9106, monoclonal) and total ERK (1:400, Santa Cruz Biotechnology #sc-94, polyclonal) were added to the cells and incubated 16-20 hours at 4° C. After washing with PBS/0.05% Tween20, the cells were incubated with fluorescently-labeled secondary antibodies (1:1000 goat anti-rabbit IgG-IRDye800, Rockland and 1:500 goat anti-mouse IgG-Alexa Fluor 680, Molecular Probes) for an additional hour. Cells were then washed and analyzed for fluorescence at both wavelengths using the Odyssey Infrared Imaging System (LI-COR Biosciences). Phosphorylated ERK signal was normalized to total ERK signal.

[2] = B-Raf V600E, bound less than 1 μM, read-out: IC50
[3] = Example A assay, 4 μM ATP, 20 nM enzyme, 60-minute incubation, read-out: BRAF V600E IC50

Row | IC50 (V600E full-length B-Raf; [2]) | IC50 (V600E full-length B-Raf; [3]) | SMILES | IC50 ([1]; bound less than 500 nM) | IC50 ([1]; bound less than 1 μM) | IC50 [1]
1 | < 1000 nM | 4.7 nM | CCCS(=O)(=O)Nc1ccc(F)c(NC(=O)Nc2ncnc3[nH]cnc23)c1F [Example 13, Propane-1-sulfonic acid {2,4-difluoro-3-[3-(9H-purin-6-yl)-ureido]-phenyl}-amide] | < 500 nM | < 1000 nM | –
2 | < 1000 nM | 0.6 nM | CCCS(=O)(=O)Nc1ccc(Cl)c(NC(=O)Nc2ncnc3[nH]nc(OC)c23)c1F [Example 16, Propane-1-sulfonic acid {4-chloro-2-fluoro-3-[3-(3-methoxy-1H-pyrazolo[3,4-d]pyrimidin-4-yl)-ureido]-phenyl}-amide] | < 500 nM | < 1000 nM | –
3 | < 1000 nM | 56.2 nM | CCCS(=O)(=O)Nc1ccc(F)c(NC(=O)Nc2ncnc3[nH]ccc23)c1F [Example 12, Propane-1-sulfonic acid {2,4-difluoro-3-[3-(7H-pyrrolo[2,3-d]pyrimidin-4-yl)-ureido]-phenyl}-amide] | < 500 nM | < 1000 nM | –
4 | < 1000 nM | 97.9 nM | CCCS(=O)(=O)Nc1ccc(F)c(NC(=O)Nc2ncnc3sccc23)c1F [Example 17, Propane-1-sulfonic acid [2,4-difluoro-3-(3-thieno[2,3-d]pyrimidin-4-yl-ureido)-phenyl]-amide] | < 500 nM | < 1000 nM | –
5 | < 1000 nM | 1.4 nM | CCCS(=O)(=O)Nc1ccc(F)c(NC(=O)Nc2ncnc3[nH]nc(OC)c23)c1F [Example 10, Propane-1-sulfonic acid {2,4-difluoro-3-[3-(3-methoxy-1H-pyrazolo[3,4-d]pyrimidin-4-yl)-ureido]-phenyl}-amide] | < 500 nM | < 1000 nM | –
6 | < 1000 nM | 0.9 nM | CCCS(=O)(=O)Nc1ccc(F)c(NC(=O)Nc2ncnc3[nH]nc(OCC)c23)c1F [Example 9, N-(3-(3-(3-Ethoxy-1H-pyrazolo[3,4-d]pyrimidin-4-yl)ureido)-2,4-difluorophenyl)propane-1-sulfonamide] | < 500 nM | < 1000 nM | –
7 | < 1000 nM | 90.8 nM | CCCS(=O)(=O)Nc1ccc(Cl)c(NC(=O)Nc2ncnc3oc(C)c(C)c23)c1F [Example 21, Propane-1-sulfonic acid {4-chloro-3-[3-(5,6-dimethyl-furo[2,3-d]pyrimidin-4-yl)-ureido]-2-fluoro-phenyl}-amide] | – | < 1000 nM | 522 nM

Further lines, the compound ahead of its results:

Row | SMILES | IC50 (V600E full-length B-Raf; [2]) | IC50 (V600E full-length B-Raf; [3]) | IC50 ([1]; bound less than 500 nM) | IC50 ([1]; bound less than 1 μM) | IC50 [1]
8 | CCCS(=O)(=O)Nc1ccc(F)c(NC(=O)Nc2ncnc3[nH]nc(OC)c23)c1OC [Example 8, Propane-1-sulfonic acid {4-fluoro-2-methoxy-3-[3-(3-methoxy-1H-pyrazolo[3,4-d]pyrimidin-4-yl)-ureido]-phenyl}-amide] | < 1000 nM | 192 nM | – | < 1000 nM | –
9 | CCS(=O)(=O)Nc1ccc(F)c(NC(=O)Nc2ncnc3[nH]nc(OC)c23)c1F [Example 3, Ethanesulfonic acid {2,4-difluoro-3-[3-(3-methoxy-1H-pyrazolo[3,4-d]pyrimidin-4-yl)-ureido]-phenyl}-amide] | < 1000 nM | 3.4 nM | < 500 nM | < 1000 nM | 13.5 nM
10 | CCCS(=O)(=O)Nc1ccc(F)c(NC(=O)N(C)c2ncnc3[nH]cnc23)c1F [Example 1, Propane-1-sulfonic acid {2,4-difluoro-3-[3-methyl-3-(9H-purin-6-yl)-ureido]-phenyl}-amide] | < 1000 nM | 23.9 nM | < 500 nM | < 1000 nM | –
11 | CCS(=O)(=O)Nc1ccc(Cl)c(NC(=O)Nc2ncnc3[nH]nc(OC)c23)c1F [Example 4, Ethanesulfonic acid {4-chloro-2-fluoro-3-[3-(3-methoxy-1H-pyrazolo[3,4-d]pyrimidin-4-yl)-ureido]-phenyl}-amide] | < 1000 nM | 1.9 nM | < 500 nM | < 1000 nM | –
